Experimental data reported in PMC5085999, “Structural Basis for Differences in Dynamics Induced by Leu Versus Ile Residues in the CD Loop of Kir Channels” (Molecular Neurobiology, 2015).
Substitutions are numbered along the chain they refer to.

Experiments:
Experiment in all cases: inside-out macropatch dose-response of channel expressed in Xenopus oocytes
Format in all cases: cell-based
Kir2.1 [1] = target: T1, Kir2.1 (Mus musculus, UniProt P35561)
T1 construct: gene Kcnj2
T1 sequence (P35561 1-428): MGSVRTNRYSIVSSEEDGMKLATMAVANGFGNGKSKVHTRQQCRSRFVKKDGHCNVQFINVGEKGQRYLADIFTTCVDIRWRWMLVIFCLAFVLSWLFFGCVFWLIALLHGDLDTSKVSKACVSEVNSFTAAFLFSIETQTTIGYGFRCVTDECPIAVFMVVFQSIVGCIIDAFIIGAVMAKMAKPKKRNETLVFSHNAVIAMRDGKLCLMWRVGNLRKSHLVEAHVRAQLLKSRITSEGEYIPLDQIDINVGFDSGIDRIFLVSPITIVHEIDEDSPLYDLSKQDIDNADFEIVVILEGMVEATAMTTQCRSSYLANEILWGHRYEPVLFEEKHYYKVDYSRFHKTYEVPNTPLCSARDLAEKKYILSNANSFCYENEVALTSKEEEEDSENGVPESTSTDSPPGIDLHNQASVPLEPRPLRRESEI

Kir2.2 [2] = target: T2, Kir2.2 (Homo sapiens, UniProt Q14500)
T2 construct: gene KCNJ12
T2 sequence (Q14500 1-433): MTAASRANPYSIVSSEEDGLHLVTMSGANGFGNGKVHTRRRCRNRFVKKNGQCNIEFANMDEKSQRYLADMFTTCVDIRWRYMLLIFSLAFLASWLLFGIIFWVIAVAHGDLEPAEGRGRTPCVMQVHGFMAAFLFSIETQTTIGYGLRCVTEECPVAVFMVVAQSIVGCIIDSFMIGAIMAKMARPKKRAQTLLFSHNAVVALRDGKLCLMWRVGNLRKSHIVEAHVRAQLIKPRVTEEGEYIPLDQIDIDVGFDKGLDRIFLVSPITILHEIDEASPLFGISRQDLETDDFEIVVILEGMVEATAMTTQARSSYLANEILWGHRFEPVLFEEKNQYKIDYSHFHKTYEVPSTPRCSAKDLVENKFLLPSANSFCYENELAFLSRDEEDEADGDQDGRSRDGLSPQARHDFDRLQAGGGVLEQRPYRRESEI

Kir2.1 [3] = target: T3, Kir2.1 (Mus musculus, UniProt P35561, L222I)
T3 construct: gene Kcnj2
T3 sequence (P35561 1-428 L222I): T1 sequence (P35561 1-428) with L222I

Kir2.2 [4] = target: T4, Kir2.2 (Homo sapiens, UniProt Q14500, I223L)
T4 construct: gene KCNJ12
T4 sequence (Q14500 1-433 I223L): T2 sequence (Q14500 1-433) with I223L

CCCCCCCC(=O)OC[C@H](COP(=O)(O)O[C@@H]1[C@H](O)[C@H](O)[C@@H](OP(=O)(O)O)[C@H](OP(=O)(O)O)[C@H]1O)OC(=O)CCCCCCC [diC8 PIP2]
EC50 (Kir2.1 [1]): 2.89 ± 0.31 µM
EC50 (Kir2.2 [2]): 6.14 ± 0.45 µM
EC50 (Kir2.1 [3]): 14 ± 0.98 µM
EC50 (Kir2.2 [4]): 1.9 ± 0.23 µM
